Holding throughout (type): functional
The subject of one assay is Fusarium oxysporum. The assay can be described thus: Antimicrobial activity against Fusarium oxysporum after 48 hrs by broth microdilution assay. In general terms: Dilution methods test growth across graded concentrations, often in twofold steps.
The subject of the next assay is Fusarium subglutinans. The assay can be described thus: Antimicrobial activity against Fusarium subglutinans after 48 hrs by broth microdilution assay.
The test system of another assay is Fusarium proliferatum. The assay can be described thus: Antimicrobial activity against Fusarium proliferatum after 48 hrs by broth microdilution assay.
The subject of a further assay is Fusarium solani. The assay can be described thus: Antimicrobial activity against Fusarium solani after 48 hrs by broth microdilution assay.
Another assay has as its system Fusarium verticillioides. The assay can be described thus: Antimicrobial activity against Fusarium verticillioides after 48 hrs by broth microdilution assay.

Values after ≈ are worked out from the molar mass of the structure shown.

MIC data for 4 molecules are collected here from ChEMBL document CHEMBL1255374, “Species distribution and in vitro antifungal susceptibility patterns of 75 clinical isolates of Fusarium spp. from northern Italy” (2008).

The MIC is the smallest concentration in the dilution series that meets the test's criterion for growth inhibition.

Consider `C[C@@H]1[C@H](O)[C@@H](C)/C=C/C=C/C=C/C=C/C=C/C=C/C=C/[C@H](O[C@@H]2O[C@H](C)[C@@H](O)[C@H](N)[C@@H]2O)C[C@@H]2O[C@](O)(C[C@@H](O)C[C@@H](O)[C@H](O)CC[C@@H](O)C[C@@H](O)CC(=O)O[C@H]1C)C[C@H](O)[C@H]2C(=O)O` [AMPHOTERICIN B], for which the MIC with Fusarium oxysporum was 2.3 µg/mL (≈ 2.49 µM); against Fusarium subglutinans it was 3.3 µg/mL (≈ 3.57 µM); in the assay on Fusarium proliferatum it was 1.7 µg/mL (≈ 1.84 µM); in the assay with Fusarium solani it was 1.25 µg/mL (≈ 1.35 µM); with Fusarium verticillioides, 1.53 µg/mL (≈ 1.66 µM).

For `CC[C@@H]([C@H](C)O)n1ncn(-c2ccc(N3CCN(c4ccc(OC[C@@H]5CO[C@@](Cn6cncn6)(c6ccc(F)cc6F)C5)cc4)CC3)cc2)c1=O` [POSACONAZOLE], the MIC worked out at 2.7 µg/mL (≈ 3.85 µM) against Fusarium oxysporum; 10.8 µg/mL (≈ 15.3 µM) in the assay on Fusarium subglutinans; 6.4 µg/mL (≈ 9.13 µM) in the assay on Fusarium proliferatum; 15.2 µg/mL (≈ 21.7 µM) against Fusarium solani; 0.46 µg/mL (≈ 0.656 µM) with Fusarium verticillioides.

As for `C[C@@H](c1ncncc1F)[C@](O)(Cn1cncn1)c1ccc(F)cc1F` [VORICONAZOLE], the MIC in the assay with Fusarium oxysporum is 4 µg/mL (≈ 11.5 µM); in the assay with Fusarium subglutinans it was 5.6 µg/mL (≈ 16 µM); in the assay with Fusarium proliferatum, 4.2 µg/mL (≈ 12 µM); with Fusarium solani, 9.21 µg/mL (≈ 26.4 µM); against Fusarium verticillioides it was 1.74 µg/mL (≈ 4.98 µM).

In the case of `CCC(C)n1ncn(-c2ccc(N3CCN(c4ccc(OCC5COC(Cn6cncn6)(c6ccc(Cl)cc6Cl)O5)cc4)CC3)cc2)c1=O` (stereo not given) [ITRACONAZOLE], the MIC against Fusarium oxysporum was over 16 µg/mL; against Fusarium subglutinans, 10.8 µg/mL (≈ 15.3 µM); with Fusarium proliferatum, over 16 µg/mL; with Fusarium solani, over 16 µg/mL; against Fusarium verticillioides, 3.33 µg/mL (≈ 4.72 µM).
